One experiment concerns the target GDP-loaded KRAS-G12V (Homo sapiens (Human), UniProt P01116, G12V). Put plainly: KRAS (GDP) biochemical TR-FRET probe displacement assay, KRAS-G12V. The class given is binding. The following applies: 2 hours.
In experiment [1] the test system is cellular pERK in ASPC-1 (KRAS G12D) cell-line. Put plainly: Cell based pERK assay (HTRF), ASPC-1. The following applies: Homo sapiens, ASPC1; ASPC-1 (KRAS G12D) cells, 2 hours incubation. The method in brief: (§1)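 IC50 values derive from TR-FRET ratios scaled between DMSO (negative) and a saturating reference inhibitor (positive). The signal reports phospho-ERK1/2 in lysates from cells exposed to compound for 2 h at 37 °C.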

The target of the next experiment is GDP-loaded KRAS-G12D (Homo sapiens (Human), UniProt P01116, G12D). Put plainly: KRAS (GDP) biochemical TR-FRET probe displacement assay, KRAS-G12D. Type of experiment: binding. The following applies: 2 hours.
Experiment [2] relates to cellular pERK in MIA-PaCa-2 (KRAS-G12C) cell-line. Put plainly: Cell based pERK assay (HTRF), MIA-PaCa-2. The following applies: Homo sapiens; MIA-PaCa-2 (KRAS-G12C) cells, 2 hours incubation; read-out: MIAPaCa2 pERK EC50. The gist of the method:
as §1

The target of the next experiment is GDP-loaded KRAS-G12C (Homo sapiens (Human), UniProt P01116, G12C). Put plainly: KRAS (GDP) biochemical TR-FRET probe displacement assay, KRAS-G12C. Type of experiment: binding. The following applies: 2 hours.
Experiment [3] addresses GDP-loaded wild-type KRAS (WT) (Homo sapiens (Human), UniProt P01116). Put plainly: KRAS (GDP) biochemical TR-FRET probe displacement assay, WT KRAS. Type of experiment: binding. The note with it: 2 hours. Here is the method: KRAS (GDP) Biochemical Assays:
Compounds were serially diluted (1:3) in DMSO. The LabCyte ECHO Acoustic dispenser was used to pre-spot the assay plates (384-well Non-Binding Surface plates, Corning, Catalog #3824) with 50 nL of compound. 5 μL of 2× enzyme concentration was added to the pre-spotted plates and incubated for 30 minutes before adding 5 μL of 2× concentration of Eu-streptavidin and Cy-5 labelled probe (10 μL final reaction volume). The plates were incubated at room temperature for 2 hours before measuring TR-FRET ratio (665 nm/615 nm) on the Envision multimode plate reader. The ratios were normalized to a positive (saturating concentration of known inhibitor) and negative (DMSO) control and plotted against the log of compound concentration.

Experiment [4] deals with cellular pERK in Kuramochi (WT KRAS) cell-line. Put plainly: Cell based pERK assay (HTRF), Kuramochi. The note with it: Kuramochi (WT KRAS) cells, 2 hours incubation. The method in brief: as §1
For experiment [5], the system named is cellular pERK in NCI-H441 (KRAS-G12V) cell-line. Put plainly: Cell based pERK assay (HTRF), NCI-H441. The following applies: Homo sapiens; NCI-H441 (KRAS-G12V) cells, 2 hours incubation. The gist of the method:
as §1

Sequence of GDP-loaded wild-type KRAS (WT) (P01116-2 other isoform, or with tags, fused parts or gaps): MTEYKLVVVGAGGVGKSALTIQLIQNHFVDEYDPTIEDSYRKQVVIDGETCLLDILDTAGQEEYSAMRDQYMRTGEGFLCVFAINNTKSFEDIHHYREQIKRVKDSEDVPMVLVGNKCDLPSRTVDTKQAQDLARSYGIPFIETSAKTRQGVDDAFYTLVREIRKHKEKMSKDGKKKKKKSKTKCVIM
Sequence of GDP-loaded KRAS-G12D (P01116-2 other isoform, or with tags, fused parts or gaps G12D): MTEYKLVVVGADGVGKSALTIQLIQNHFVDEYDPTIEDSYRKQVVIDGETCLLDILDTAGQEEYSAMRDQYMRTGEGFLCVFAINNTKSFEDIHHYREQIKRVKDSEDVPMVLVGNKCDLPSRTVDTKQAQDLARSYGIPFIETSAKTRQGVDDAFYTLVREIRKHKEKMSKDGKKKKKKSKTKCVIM
Sequence of GDP-loaded KRAS-G12C (P01116-2 other isoform, or with tags, fused parts or gaps G12C): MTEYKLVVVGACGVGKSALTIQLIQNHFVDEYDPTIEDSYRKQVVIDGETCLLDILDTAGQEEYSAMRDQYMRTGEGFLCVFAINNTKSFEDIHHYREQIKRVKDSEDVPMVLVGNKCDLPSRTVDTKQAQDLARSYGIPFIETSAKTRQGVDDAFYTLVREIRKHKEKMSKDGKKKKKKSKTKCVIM
Sequence of GDP-loaded KRAS-G12V (P01116-2 other isoform, or with tags, fused parts or gaps G12V): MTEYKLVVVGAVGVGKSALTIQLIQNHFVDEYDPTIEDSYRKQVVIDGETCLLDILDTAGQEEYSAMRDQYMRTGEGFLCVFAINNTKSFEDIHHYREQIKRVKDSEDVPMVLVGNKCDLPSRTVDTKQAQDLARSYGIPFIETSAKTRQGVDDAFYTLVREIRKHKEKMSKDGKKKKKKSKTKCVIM

On to `C#Cc1c(F)ccc2cc(O)cc(-c3nc4c5c(nc(OCC67CCCN6[C@H](COC(C(F)(F)F)C(F)(F)F)CC7)nc5c3F)N3CCCOCC3CC4)c12` (stereo partly shown) [Example 22-7], for which the IC50 at GDP-loaded KRAS-G12V was found to be 12.6 nM; at GDP-loaded KRAS-G12D, 31 nM; at GDP-loaded KRAS-G12C, 34.7 nM; in experiment [3] it was 30.6 nM. Also, the EC50 in experiment [1] was 54.6 nM; in experiment [2] it was 6.69 nM; in experiment [4], 9.83 nM; in experiment [5] it was 37.1 nM.

As to `C#Cc1c(F)ccc2cc(O)cc(-c3nc4c5c(nc(OCC67CCCN6[C@H](COCC(F)(F)F)CC7)nc5c3F)N3CCCOCC3CC4)c12` (stereo partly shown) [Example 22-8], the IC50 on GDP-loaded KRAS-G12V amounted to 1.37 nM; at GDP-loaded KRAS-G12D it was 0.36 nM; at GDP-loaded KRAS-G12C, 0.67 nM; in experiment [3], 1.61 nM. For the same compound, the EC50 came out at 14.6 nM in experiment [1], 5.57 nM in experiment [2], 2.15 nM in experiment [4] and 6.08 nM in experiment [5].

The values are drawn from patent US20240383922A1, “KRAS Modulating Compounds” (Gilead Sciences, Inc., priority 2023, published 2024).
